# Values joined by “and” are separate entries in the source; they are usually repeats but may differ in a detail not shown here. Equal values may be shown once. Ends that are not written are not given here.
# Assays:
# Type in all cases: cell-based
# Details in all cases: 72 h
# SIRT4 = SIRT4 transcription, semi-quantitative RT-PCR in human epidermal progenitors
# Procedure: (§1) Human neonatal epidermal progenitors (Thermo Fisher Scientific, NY) were seeded in 6-well plates at a density of 2×10^5 cells/well. Each well received 2 ml of Epilife media containing 60 μM calcium chloride (Thermo Fisher Scientific, NY). Plates were incubated in a humidified chamber at 37 degrees Celsius and 5 percent CO2. Twenty-four hours later, cells were treated with various concentrations of oxyresveratrol or decapeptide-12 dissolved in PBS containing 5 percent DMSO. Control wells received vehicle only (5 percent DMSO and PBS). Final concentration of DMSO in each well was 0.05 percent.
# (§2) After a 72 hour incubation period, cells were trypsinized and total RNA extracted, using RNeasy kit (Qiagen, Valencia, Calif.) according to the manufacturer's protocol.
# (§3) RNA concentration was determined using nanodrop (Thermo fisher scientific, NY). Two μg of total RNA were used to synthesize cDNA using oligo dT primers and TaqMan reverse transcription reagents (Thermo fisher scientific, NY). The reaction was carried out in DNA Engine Peltier Thermal Cycler (Bio-Rad, Hercules, Calif.). The annealing temperature was 25 degrees Celsius for 10 minutes, followed by first strand synthesis at 48 degrees Celsius for 1 hour, and heat inactivation at 95 degrees Celsius for 5 minutes.
# (§4) The SIRT1-7 primers (table 1) were designed using Primer3. The semi-quantitative PCR reactions were performed on a DNA Engine Peltier Thermo Cycler (Bio-Rad, Hercules, Calif.). PCR was carried under the following conditions: denaturation at 94 degrees Celsius for 2 minutes and primer extension at 54 degrees Celsius for 30 seconds in 34 cycles for SIRT 1-7 and the housekeeping gene 18S.
# (§5) Samples were run and resolved on a 1.5 percent agarose gel containing 0.5 μg/ml of ethidium bromide and imaged using the FluorChem HD2 Imaging System (Protein simple, San Jose, Calif.). Densitometry analysis was carried out using the AlphaEase FC software (Protein simple, San Jose, Calif.). Intensity ratios were calculated as the intensity value for each gene divided by the intensity value of the internal control gene 18S.
# (§6) The effect of the decapeptides P4, P4A, P4B, and P4C upon the transcription levels of sirtuins 1-7 was evaluated. Table 4 summarizes transcription levels for all four decapeptides with the corresponding genes, at tested concentrations of: 10, 30, 50, 100, and 300 (all in μM).
# SIRT7 = SIRT7 transcription, semi-quantitative RT-PCR in human epidermal progenitors
# Procedure: as §1, §2, §3, §4, §5, §6
# SIRT2 = SIRT2 transcription, semi-quantitative RT-PCR in human epidermal progenitors
# Procedure: as §1, §2, §3, §4, §5, §6
# SIRT6 = SIRT6 transcription, semi-quantitative RT-PCR in human epidermal progenitors
# Procedure: as §1, §2, §3, §4, §5, §6
sequence,measurement,setting,value
"YRSRKYSSWY [decapeptide-12, YRSRKYSSWY]",SIRT4 transcription increase relative to control,SIRT4; 10 μM,8.1 ± 4%^
same,SIRT4 transcription increase relative to control,"SIRT4; 10 μM, listed as P4",8 ± 3%
same,SIRT4 transcription increase relative to control,SIRT4; 30 μM,12.1 ± 7%
same,SIRT4 transcription increase relative to control,"SIRT4; 30 μM, listed as P4",12 ± 7%
same,SIRT4 transcription increase relative to control,SIRT4; 50 μM,41.2 ± 13.1%
same,SIRT4 transcription increase relative to control,"SIRT4; 50 μM, listed as P4",41 ± 13%
same,SIRT4 transcription increase relative to control,"SIRT4; 100 μM, listed as Deca",71.4 ± 14.1%
same,SIRT4 transcription increase relative to control,"SIRT4; 100 μM, listed as P4",71 ± 14%
same,SIRT4 transcription increase relative to control,SIRT4; 300 μM,115 ± 11.7%
same,SIRT4 transcription increase relative to control,"SIRT4; 300 μM, listed as P4",115 ± 12%
same,SIRT4 transcription increase relative to control,SIRT4; 500 μM,145 ± 12.7%
same,SIRT4 transcription increase relative to control,SIRT4; 1000 μM,151 ± 13.4%
same,SIRT7 transcription increase relative to control,SIRT7; 3 μM,5 ± 1%
same,SIRT7 transcription increase relative to control,SIRT7; 10 μM,15 ± 4.2%
same,SIRT7 transcription increase relative to control,"SIRT7; 10 μM, listed as P4",15 ± 4%
same,SIRT7 transcription increase relative to control,SIRT7; 30 μM,34.4 ± 9.2%
same,SIRT7 transcription increase relative to control,"SIRT7; 30 μM, listed as P4",34 ± 9%
same,SIRT7 transcription increase relative to control,SIRT7; 50 μM,61.3 ± 10.2%
same,SIRT7 transcription increase relative to control,"SIRT7; 50 μM, listed as P4",61 ± 10%
same,SIRT7 transcription increase relative to control,SIRT7; 100 μM,95.4±14% and 95±14%
same,SIRT7 transcription increase relative to control,"SIRT7; 100 μM, listed as Deca",95.4 ± 14.2%
same,SIRT7 transcription increase relative to control,"SIRT7; 100 μM, listed as P4",95 ± 14%
same,SIRT7 transcription increase relative to control,SIRT7; 300 μM,148 ± 9.6%
same,SIRT7 transcription increase relative to control,"SIRT7; 300 μM, listed as P4",148 ± 10%
same,SIRT7 transcription increase relative to control,SIRT7; 500 μM,171.4 ± 8.4%
same,SIRT7 transcription increase relative to control,SIRT7; 1000 μM,181.1 ± 8.4%
same,SIRT2 transcription increase relative to control,SIRT2; 3 μM,1 ± 1%
same,SIRT2 transcription increase relative to control,SIRT2; 10 μM,4.1 ± 3%
same,SIRT2 transcription increase relative to control,"SIRT2; 10 μM, listed as P4",4 ± 3%
same,SIRT2 transcription increase relative to control,SIRT2; 30 μM,11.2 ± 3.7%
same,SIRT2 transcription increase relative to control,"SIRT2; 30 μM, listed as P4",11 ± 4%
same,SIRT2 transcription increase relative to control,SIRT2; 50 μM,21.5 ± 4.9%
same,SIRT2 transcription increase relative to control,"SIRT2; 50 μM, listed as P4",22 ± 5%
same,SIRT2 transcription increase relative to control,"SIRT2; 100 μM, listed as Deca",35.4 ± 5.5%
same,SIRT2 transcription increase relative to control,"SIRT2; 100 μM, listed as P4",35 ± 5%
same,SIRT2 transcription increase relative to control,SIRT2; 300 μM,61.1± 6.8%
same,SIRT2 transcription increase relative to control,"SIRT2; 300 μM, listed as P4",61 ± 7%
same,SIRT2 transcription increase relative to control,SIRT2; 500 μM,76 ± 6.1%
same,SIRT2 transcription increase relative to control,SIRT2; 1000 μM,76 ± 7.1%
same,SIRT6 transcription increase relative to control,SIRT6; 3 μM,3 ± 1%
same,SIRT6 transcription increase relative to control,SIRT6; 10 μM,21.3 ± 8.1%
same,SIRT6 transcription increase relative to control,"SIRT6; 10 μM, listed as P4",21 ± 8%
same,SIRT6 transcription increase relative to control,SIRT6; 30 μM,52 ± 5.1%
same,SIRT6 transcription increase relative to control,"SIRT6; 30 μM, listed as P4",52 ± 5%
same,SIRT6 transcription increase relative to control,SIRT6; 50 μM,95.4 ± 13.4%
same,SIRT6 transcription increase relative to control,"SIRT6; 50 μM, listed as P4",95 ± 13%
same,SIRT6 transcription increase relative to control,SIRT6; 100 μM,147±8% and 147%
same,SIRT6 transcription increase relative to control,"SIRT6; 100 μM, listed as Deca",147 ± 8.4%
same,SIRT6 transcription increase relative to control,"SIRT6; 100 μM, listed as P4",147 ± 8%
same,SIRT6 transcription increase relative to control,SIRT6; 300 μM,189 ± 9.5%
same,SIRT6 transcription increase relative to control,"SIRT6; 300 μM, listed as P4",189 ± 10%
same,SIRT6 transcription increase relative to control,SIRT6; 500 μM,194 ± 14%
same,SIRT6 transcription increase relative to control,SIRT6; 1000 μM,167 ± 12.2%
